Measurements published in the CheMixHub viscosity set.

Assay: xn = mol fraction of the nth substance listed

Brc1ccccc1 + CCCCCCCCCCCCCC
viscosity [mPa·s], 101 kPa
Conditions	x2 = 0.1001	x2 = 0.2007	x2 = 0.3005	x2 = 0.3996	x2 = 0.4985	x2 = 0.5998	x2 = 0.6987	x2 = 0.8012	x2 = 0.9011
298.15 K	1.117	1.185	1.287	1.389	1.49	1.592	1.694	1.796	1.897
303.15 K	1.042	1.13	1.218	1.306	1.394	1.482	1.57	1.658	1.746
308.15 K	0.985	1.06	1.137	1.213	1.289	1.365	1.441	1.517	1.593

C1COCCO1 + CC(C)O
viscosity [mPa·s]
Conditions	298.15 K	303.15 K	308.15 K	313.15 K
101 kPa, x1 = 0.4	1.078	–	–	–
101 kPa, x2 = 0.1382	–	0.9888	0.9165	–
101 kPa, x2 = 0.2768	–	0.9414	0.8803	–
101 kPa, x2 = 0.3911	–	0.9353	0.8656	–
101 kPa, x2 = 0.4934	–	0.9403	0.8625	–
101 kPa, x2 = 0.5928	–	0.9543	0.8778	–
101 kPa, x2 = 0.6977	–	1.014	0.9221	–
101 kPa, x2 = 0.7841	–	1.112	1.012	–
101 kPa, x2 = 0.8535	–	1.259	1.128	–
101 kPa, x2 = 0.929	–	1.47	1.308	–
101.3 kPa, x1 = 0.038	1.821	1.578	1.38	1.218
101.3 kPa, x1 = 0.1103	1.479	1.312	1.17	1.039
101.3 kPa, x1 = 0.213	1.224	1.099	0.9913	0.8984
101.3 kPa, x1 = 0.3316	1.075	0.9775	0.887	0.8129
101.3 kPa, x1 = 0.3634	1.055	0.9613	0.8738	0.8044
101.3 kPa, x1 = 0.4318	1.014	0.9242	0.8492	0.7791
101.3 kPa, x1 = 0.5184	0.9926	0.91	0.835	0.7724
101.3 kPa, x1 = 0.6312	0.9873	0.9117	0.837	0.7769
101.3 kPa, x1 = 0.6592	0.9898	0.9161	0.8392	0.778
101.3 kPa, x1 = 0.787	1.048	0.9473	0.8747	0.8157
101.3 kPa, x1 = 0.891	1.101	1.01	0.9326	0.8715
101.3 kPa, x1 = 0.935	1.131	1.048	0.9724	0.8943
